Test results published in patent US7109243B2 (IRM LLC, priority 2003, dated 2006).
Like-named read-outs stand apart in the source and are kept apart here.

How the values were obtained:
Cathepsin K = molecular target: T1, Cathepsin K (Homo sapiens, UniProt P43235); experiment: Cathepsin K inhibition assay (fluorogenic peptide substrate); selectivity ratio vs cathepsin S; assay type: biochemical
T1 sequence (P43235 115-329): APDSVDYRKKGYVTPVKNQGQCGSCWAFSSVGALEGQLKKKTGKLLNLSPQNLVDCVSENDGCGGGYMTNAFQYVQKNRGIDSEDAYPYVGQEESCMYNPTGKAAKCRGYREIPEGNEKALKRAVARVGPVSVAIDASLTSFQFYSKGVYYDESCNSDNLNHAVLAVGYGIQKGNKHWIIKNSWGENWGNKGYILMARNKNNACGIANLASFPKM
Procedure, shortened: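 Inhibition constants for competitive inhibitors come from apparent values fitted to enzyme progress curves. Substrate, acetyl-Lys-His-Pro-Lys-aminocarbamoylcoumarin (40 μM final), starts the reaction; fluorescence rise read at 380 nm excitation, 450 nm emission. Selectivity ratio: other cathepsin constant over cathepsin S constant.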

Cathepsin S = Cathepsin S (Homo sapiens, UniProt P25774); experiment: Cathepsin S inhibition assay (fluorogenic peptide substrate); assay type: biochemical
Procedure, shortened: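 Ki values come from nonlinear fitting of inhibited hydrolysis rates, taking free and total inhibitor concentrations as equal. Rates measured as rising fluorescence at 380/450 nm after reaction start with 50 μM final acetyl-HPVK-aminocarbamoylcoumarin.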

[1] = ratio of cathepsin K inhibition constant to cathepsin S inhibition constant, Table II
[2] = Table II, compounds of Formula I, read-out: Ki Cat. S

Cathepsin S, sequence (P25774 115-331, species assumed): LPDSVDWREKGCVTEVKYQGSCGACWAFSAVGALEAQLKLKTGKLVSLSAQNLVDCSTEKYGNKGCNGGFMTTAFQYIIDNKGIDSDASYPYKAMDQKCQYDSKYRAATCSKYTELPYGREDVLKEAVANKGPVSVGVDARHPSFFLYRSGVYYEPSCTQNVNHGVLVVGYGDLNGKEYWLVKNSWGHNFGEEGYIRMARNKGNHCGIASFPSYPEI

SMILES	Selectivity for Cat. S over Cat. K (Cathepsin K; [1])	Ki (Cathepsin S; [2])	Selectivity for Cat. S over Cat. K (Cathepsin K; comparison compounds in the art, ratio Ki CatK / Ki CatS)	Ki (Cathepsin K; comparison compounds in the art, read-out: Ki (CatK))	Ki (Cathepsin S; comparison compounds in the art, read-out: Ki (CatS))
COc1ccc(NCCNC(=O)[C@H](CCC2CCCCC2)NC(=O)c2cc3cc(Cl)ccc3[nH]2)cc1 [Compound 131, (S)-5-Chloro-1H-indole-2-carboxylic acid {3-cyclohexyl-1-[2-(4-methoxy-phenylamino)-ethylcarbamoyl]-propyl}-amide]	+ (+, >10)	< 10000 nM	–	–	–
O=C(N[C@@H](CC1CCCCC1)C(=O)NCCNc1ccc(F)cc1)c1cscn1 [Compound 314, Thiazole-4-carboxylic acid (S)-{2-cyclohexyl-1-[2-(4-fluoro-phenylamino)-ethylcarbamoyl]-ethyl}-amide]	+ (+, >10)	< 100 nM	–	–	–
COc1ccc(NCCNC(=O)[C@H](Cc2ccc(F)c(F)c2)NC(=O)c2cccc(C)c2)cc1 [Compound 237, (S)-N-{2-(3,4-Difluoro-phenyl)-1-[2-(4-methoxy-phenylamino)-ethylcarbamoyl]-ethyl}-3-methyl-benzamide]	+++ (+++, >1000)	< 100 nM	–	–	–
COc1ccc(NCCNC(=O)[C@@H](CC(C)C)NC(=O)c2ccc(-c3ccccc3)cc2)cc1 [reference compound]	–	–	<10	< 100 nM	< 100 nM
O=C(N[C@@H](CC1CCCCC1)C(=O)NCCNc1ccc(OC(F)(F)F)cc1)c1ccc(-c2ccccc2C(F)(F)F)s1 [Compound 35, 5-(2-Trifluoromethyl-phenyl)-thiophene-2-carboxylic acid (S)-{2-cyclohexyl-1-[2-(4-trifluoromethoxy-phenylamino)-ethylcarbamoyl]-ethyl}-amide]	+ (+, >10)	< 100 nM	–	–	–
CC(=O)N1CCC(C(=O)N[C@@H](CC2CCCCC2)C(=O)NCCNc2ccc(F)cc2)CC1 [Compound 79, 1-Acetyl-piperidine-4-carboxylic acid (S)-{2-cyclohexyl-1-[2-(4-fluoro-phenylamino)-ethylcarbamoyl]-ethyl}-amide]	+ (+, >10)	< 10000 nM	–	–	–
O=C(N[C@@H](CC1CCCCC1)C(=O)NCCNc1ccc(F)cc1)c1ccnnc1 [Compound 295, Pyridazine-4-carboxylic acid (S)-{2-cyclohexyl-1-[2-(4-fluoro-phenylamino)-ethylcarbamoyl]-ethyl}-amide]	++ (++, >100)	< 1000 nM	–	–	–
COc1ccc(NCCNC(=O)[C@H](CCC2CCCCC2)NC(=O)c2cc3cc(F)ccc3[nH]2)cc1 [Compound 132, (S)-5-Fluoro-1H-indole-2-carboxylic acid {3-cyclohexyl-1-[2-(4-methoxy-phenylamino)-ethylcarbamoyl]-propyl}-amide]	++ (++, >100)	< 1000 nM	–	–	–
COc1ccc(NCCNC(=O)C(NC(=O)c2cccc(C)c2)c2ccc(C)cc2C)cc1 (stereo not shown) [Compound 224, N-{(2,4-Dimethyl-phenyl)-[2-(4-methoxy-phenylamino)-ethylcarbamoyl]-methyl}-3-methyl-benzamide]	++ (++, >100)	< 1000 nM	–	–	–
COc1ccc(NCCNC(=O)[C@H](CCc2ccccc2)NC(=O)c2cccc(C)c2)cc1 [Compound 206, (S)-N-{1-[2-(4-Methoxy-phenylamino)-ethylcarbamoyl]-3-phenyl-propyl}-3-methyl-benzamide]	++ (++, >100)	< 1000 nM	–	–	–
O=C(Cc1nnn[nH]1)N[C@@H](CC1CCCCC1)C(=O)NCCNc1ccc(F)cc1 [Compound 297, 3-Cyclohexyl-N-[2-(4-fluoro-phenylamino)-ethyl]-2-(S)-(2-1H-tetrazol-5-yl-acetylamino)-propionamide]	++ (++, >100)	< 1000 nM	–	–	–
Cc1ccccc1CC(=O)N[C@@H](CC1CCCCC1)C(=O)NCCNc1ccc(F)cc1 [Compound 304, 3-Cyclohexyl-N-[2-(4-fluoro-phenylamino)-ethyl]-2-(S)-(2-o-tolyl-acetylamino)-propionamide]	+++ (+++, >1000)	< 100 nM	–	–	–
O=C(Cc1ccc(F)cc1)N[C@@H](CC1CCCCC1)C(=O)NCCNc1ccc(F)cc1 [Compound 152, 3-Cyclohexyl-2-(S)-[2-(4-fluoro-phenyl)-acetylamino]-N-[2-(4-fluoro-phenylamino)-ethyl]-propionamide]	++ (++, >100)	< 100 nM	–	–	–
COc1ccc(NCCNC(=O)[C@H](Cc2ccccc2)NC(=O)Nc2c(C)cccc2C(C)(C)C)cc1 [Compound 102, (S)-2-[3-(2-tert-Butyl-6-methyl-phenyl)-ureido]-N-[2-(4-methoxy-phenylamino)-ethyl]-3-phenyl-propionamide]	++ (++, >100)	< 100 nM	–	–	–
COc1ccc(NCCNC(=O)[C@H](Cc2ccc(F)cc2)NC(=O)c2cccc(C)c2)cc1 [Compound 245, (S)-N-{2-(4-Fluoro-phenyl)-1-[2-(4-methoxy-phenylamino)-ethylcarbamoyl]-ethyl}-3-methyl-benzamide]	+++ (+++, >1000)	< 100 nM	–	–	–
COc1ccc(NCCNC(=O)[C@H](CC2CCCCC2)NC(=O)C2(c3ccccc3)CC2)cc1 [Compound 158, (S)-1-Phenyl-cyclopropanecarboxylic acid {2-cyclohexyl-1-[2-(4-methoxy-phenylamino)-ethylcarbamoyl]-ethyl}-amide]	++ (++, >100)	< 100 nM	–	–	–
O=C(N[C@@H](CC1CCCCC1)C(=O)NCCNc1ccc(OC(F)(F)F)cc1)C1CCN(c2ncc(Br)cn2)CC1 [Compound 81, 1-(5-Bromo-pyrimidin-2-yl)-piperidine-4-carboxylic acid (S)-{2-cyclohexyl-1-[2-(4-trifluoromethoxy-phenylamino)-ethylcarbamoyl]-ethyl}-amide]	++ (++, >100)	< 1000 nM	–	–	–
COc1ccc(NCCNC(=O)[C@H](CC2CCCCC2)NC(=O)c2cnn(-c3ccc(F)cc3)c2C)cc1 [Compound 161, (S)-1-(4-Fluoro-phenyl)-5-methyl-1H-pyrazole-4-carboxylic acid {2-cyclohexyl-1-[2-(4-methoxy-phenylamino)-ethylcarbamoyl]-ethyl}-amide]	++ (++, >100)	< 100 nM	–	–	–
COc1ccc(NCCNC(=O)[C@H](CC2CCCCC2)NC(=O)c2cc(Br)cc(Br)c2)cc1 [Compound 178, (S)-3,5-Dibromo-N-{2-cyclohexyl-1-[2-(4-methoxy-phenylamino)-ethylcarbamoyl]-ethyl}-benzamide]	+++ (+++, >1000)	< 100 nM	–	–	–
COc1ccc(NCCNC(=O)[C@H](CC2CCCCC2)NC(=O)c2cc(F)cc(C(F)(F)F)c2)cc1 [Compound 165, (S)-N-{2-Cyclohexyl-1-[2-(4-methoxy-phenylamino)-ethylcarbamoyl]-ethyl}-3-fluoro-5-trifluoromethyl-benzamide]	+++ (+++, >1000)	< 100 nM	–	–	–
COc1ccc(NCCNC(=O)[C@H](CC2CCOCC2)NC(=O)c2ccc(-c3cccc(C(F)(F)F)c3)o2)cc1 [Compound 5, N-((S)-1-(2-(4-methoxyphenylamino)ethylcarbamoyl)-2-(tetrahydro-2H-pyran-4-yl)ethyl)-5-(3-(trifluoromethyl)phenyl)furan-2-carboxamide]	+ (+, >10)	< 1000 nM	–	–	–
